Patent US12478608B2, “Use of slow-releasing hydrogen sulfide organic donor ADT-OH in the preparation of drugs for treating nervous system diseases” (SOOCHOW UNIVERSITY, priority 2021, dated 2025)

How the values were obtained:
Assay type in all cases: cell-based, mouse
neural precursor cells [1] = experiment: Differentiation of neural precursor cells into oligodendrocytes (MBP immunofluorescence); settings: ADT-OH 80 μmol/L; 5 days in differentiation medium
From the text: (§1) • (1) Adult ICR mice (male:female 2:1) were allowed to mate randomly. At 8:00 every night, the male and female mice were co-caged. […] On day 14.5 of pregnancy of the mice, neural precursor cells were extracted.
(§2) C57BL/6J mice at day 14.5 of pregnancy were anesthetized with 4% chloral hydrate by intraperitoneal injection. The abdominal cavity of the pregnant mice was opened using sterile surgical scissors and surgical forceps, the uterus of the pregnant mice was opened and the fetal brain was taken out. […]
(§3) The cultured cells were fixed with 4% PFA for 15 min, and washed three times with 0.01 M PBS, and then immunofluorescence staining was performed with Tuj1, GFAP, MBP, and caspase3 antibodies. The plate was blocked with a DAPI-containing blocking agent (Vector Labs, H-1400), observed and photographed under a Zeiss fluorescence microscope. Tuj1-positive neurons GFAP-positive astrocytes, MBP-positive oligodendrocytes and DAPI-positive cells were counted using ImageJ and adobe photoshop, respectively. The rate of positive cells to all DAPI-positive cells was calculated. • (2) The cells were fixed with 4% PFA after 5 days of differentiation in the differentiation medium, and immunofluorescently stained with the neuron-specific antibody Tuj1. […]
The rate of MBP positive cells to all DAPI-positive cells was statistically calculated.

neural precursor cells [2] = experiment: Apoptosis of neural precursor cells (caspase3 staining); settings: ADT-OH 80 μmol/L
Method: The isolated primary neural precursor cells were cultured for 3-4 days, and the neurospheres were blown into individual cells. and inoculated in a 24-well cell culture plate lined with adhesive glass discs. The cells were grown in neural precursor cell culture medium supplemented with ADT-OH (80 μmol/L) or control solute DMSO for 3 days, respectively, and then stained with apoptosis-specific antibody caspase3. Images were collected under a fluorescence microscope, and • the rate of caspase3 positive cells to all DAPI-positive cells were statistically calculated.

neural precursor cells [3] = experiment: Differentiation of neural precursor cells into astrocytes (GFAP immunofluorescence); settings: ADT-OH 80 μmol/L; 8 days in differentiation medium
From the text: as §1, §2, §3
The rate of GFAP positive cells to DAPI-positive cells was statistically calculated.

neural precursor cells [4] = experiment: Differentiation of neural precursor cells into neurons (Tuj1 immunofluorescence) and axonal length; settings: ADT-OH 80 μmol/L; 5 days in differentiation medium
From the text: as §1
C57BL/6J mice at day 14.5 of pregnancy were anesthetized with 4% chloral hydrate by intraperitoneal injection. The abdominal cavity of the pregnant mice was opened using sterile surgical scissors and surgical forceps, the uterus of the pregnant mice was opened and the fetal brain was taken out. The fetal brain tissue in the subventricular zone was isolated under a stereomicroscope, digested with 0.05% trypsin in a water bath at 37° C. for 10 min, and then terminated with a neural precursor cell culture medium (containing DMEM-F12 medium 39.2 ml, 1×B27 800 ul, 0.2 mg/ml bEGF 4 ul, and 0.2 mg/ml FGF 8 ul), and then gently blown into individual cells. The cells were centrifuged at 700 rcf for 5 min and the supernatant was discarded. The neural precursor cell culture medium was added, and the cells were inoculated and cultured in a 24-well cell culture plate. […]
The cultured cells were fixed with 4% PFA for 15 min, and washed three times with 0.01 M PBS, and then immunofluorescence staining was performed with Tuj1, GFAP, MBP, and caspase3 antibodies. The plate was blocked with a DAPI-containing blocking agent (Vector Labs, H-1400), observed and photographed under a Zeiss fluorescence microscope. Tuj1-positive neurons GFAP-positive astrocytes, MBP-positive oligodendrocytes and DAPI-positive cells were counted using ImageJ and adobe photoshop, respectively. The rate of positive cells to all DAPI-positive cells was calculated. • (2) The cells were fixed with 4% PFA after 5 days of differentiation in the differentiation medium, and immunofluorescently stained with the neuron-specific antibody Tuj1. After staining, images were collected under a fluorescence microscope, and the rates of neurons to all DAPI-positive cells in each group were statistically calculated.

**Q.** What does the source list for `Oc1ccc(-c2cc(=S)ss2)cc1` [ADT-OH, 5-(p-hydroxyphenyl)-1,2-dithione-3-thione]?
**A.** differentiation into oligodendrocytes (MBP positive cells to all DAPI-positive cells) compared with the DMSO control group (neural precursor cells [1]): more cells are differentiated into oligodendrocytes; rate of differentiation into oligodendrocytes, increase compared with the DMSO control group (neural precursor cells [1]): 87.5%; apoptosis, reduction compared with the DMSO control group (neural precursor cells [2]; 3 days): 44.8%; apoptotic cells (caspase3 positive cells to all DAPI-positive cells) compared with the DMSO control group (neural precursor cells [2]; 3 days in neural precursor cell culture medium): fewer cells are apoptotic; differentiation into astrocytes (GFAP positive cells to DAPI-positive cells) compared with the DMSO control group (neural precursor cells [3]): fewer cells in the ADT-OH group are differentiated into astrocytes; rate of differentiation into astrocytes, reduction compared with the DMSO control group (neural precursor cells [3]): 69.2%; axons of neurons (axonal length) compared with the DMSO control group (neural precursor cells [4]): longer axons; differentiation into neurons (Tuj1-positive cells to all DAPI-positive cells) compared with the DMSO control group (neural precursor cells [4]): more cells are differentiated into neurons; rate of differentiation into neurons, increase compared with the DMSO control group (neural precursor cells [4]): 57.69%
